Results taken from US9758787B2, “Engineering microorganisms” (DSM NUTRITIONAL PRODUCTS AG, priority 2011, dated 2017).

How the values were obtained:
[1] = cited from earlier work
[2] = tested on: transformed ONC-T18 strains; experiment: Growth on zeocin plates after six colony passages without zeocin, transformed strains (Example 12); assay type: cell-based, Thraustochytrium sp. ONC-T18; details: zeocin 200 μg/mL media
Source text: (§1) Transgene stability is important for certain applications of genetic engineering in industrial microbial strain improvement programs where microorganisms are used in pharmaceutical or industrial processes, and where product quantity and quality are paramount. We therefore carried out transgene stability estimate assays of transformed ONC-T18 strains. As for the growth rate assays described in Example 7, inocula of four strains of each transformation as well as their ancestor wild type strains were spotted on ONC-T18-GM0 agar plates in the absence of zeocin and incubated at 25° C. for seven days. (Each transformation had been performed using one of the five different plasmid constructs, each of which bears various zeocin-resistant gene expression cassettes driven by a combination of different promoters and terminators). Then, using the same method, strains were transferred on a new fresh ONC-T18-GM0 agar plate and incubated at 25° C. for 7 days; colony passages were carried out 6 times. Finally, strains were transferred back onto ONC-T18-GM0 agar plates either without or with zeocin at a concentration of 200 μg/mL media.

[3] = tested on: Thraustochytrium sp. ONC-T18; experiment: Effects of different antibiotics on growth of ONC-T18 on ONC-T18-GM0 agar plates (Example 3); assay type: cell-based; design: sensitivity of ONC-T18 cells to zeocin: dose or concentration left out as unconfirmed
Procedure: Thraustochytrium sp. ONC-T18 was grown on agar plates (20 g agar per liter ONC-T18-GM0). One loop of inoculum of ONC-T18 was inoculated into 50 mL of liquid ONC-T18-GM0, and the culture was incubated in a shaker incubator at 25° C. at 250 rpm for 36 hours. Half a milliliter of the culture was transferred into a 1.5 mL tube and vortexed at full speed for 30 seconds to break down cell clusters, then diluted in 50 mL sterilized water. One hundred microliters of the resulting solution was spread onto each ONC-T18-GM0 medium plate. Each plate contained one of various antibiotics at one of various concentrations. Plates were incubated at 25° C. and emergence and development of colonies were observed daily.

[4] = tested on: parental strain (the wild type strain) ONC-T18; experiment: Zeocin sensitivity, spotted colonies on agar plates, parental strain (Example 8); assay type: cell-based, Thraustochytrium sp. ONC-T18; details: ONC-T18-GM0 agar plates, 18 g/L sea salt
Procedure: (§2) A very small amount of inoculum of zeocin-resistant strains that had been transferred three times via colony passages on zeocin/ONC-T18-GM0 agar plates (as well as their parental strain or the wild type strain) was picked from colonies using a 10 μL pipette tip and re-suspended in 50 μL sterilized water in a 200 μL PCR tube. One μL of the cell suspension was spotted on ONC-T18-GM0 agar plates containing 18 g/L sea salt (15 g/L agar) and zeocin at a concentration ranging from 0 to 5000 μg/mL (Invitrogen, CA, USA). The diameters of the spotted colonies were measured on day 1, day 3, day 5, day 7, and day 8.

[5] = tested on: Thraustochytrium sp. ONC-T18; experiment: Effects of zeocin and salinity on colony numbers and colony diameter of ONC-T18 (Example 4); assay type: cell-based; details: for colony numbers: 10 days; for colony numbers / colony growth rates (diameter in mm): mean of two plates
Procedure: One hundred μL of ONC-T18 cell suspension diluted at 1:500 from a 2-day culture were spread onto ONC-T18-GM0 plates containing various concentrations of antibiotic zeocin and sea salt. Inoculated plates were incubated in a 25° C. incubator for 10 days. The numbers of the colonies on each plate were counted. […] In plates containing 8.5 g/L sea salt without zeocin, only one colony was observed. In plates containing 18 g/L sea salt without zeocin, colony numbers were similar to that of plates containing 35 g/L sea salt without zeocin. […] Therefore, for this work, 18 g/L sea salt was used to make ONC-T18-GM0 for selection of ONC-T18 transformants transformed with constructs bearing a zeocin-resistant gene expression cassette.

[6] = tested on: transformed ONC-T18 strains bearing the zeocin-resistance gene expression cassette; experiment: Zeocin sensitivity, spotted colonies on agar plates, transformed strains (Example 8); assay type: cell-based, Thraustochytrium sp. ONC-T18; details: 5000 μg/mL zeocin
Procedure: as §2

[7] = tested on: wild type ONC-T18 strains; experiment: Growth on zeocin plates after six colony passages without zeocin, wild type (Example 12); assay type: cell-based, Thraustochytrium sp. ONC-T18; details: zeocin 200 μg/mL media
Source text: as §1

[8] = tested on: wild type strain of ONC-T18; experiment: Zeocin as mutagenic agent on ONC-T18 agar plates (Example 13); assay type: cell-based, Thraustochytrium sp. ONC-T18
Procedure: The marine protist wild type strain of ONC-T18 was chosen as a model system to test if zeocin would be effective to induce mutagenesis in this strain. One full loop of the inocula of ONC-T18, growing in the agar plates containing ONC-T18-GM0 medium[5 g/L yeast extract, 5 g/L peptone, 10 g/L D(+)-glucose, 35 g/L artificial sea salt, 1.25 mg/L trace elements (5 g/L NaH2PO4.H2O, 3.15 g/L FeCl3.6H2O, 4.36 g/L Na2EDTA.2H2O, 0.6125 mg/L CuSO4.5H2O, 0.0597 g/L Na2MoO4.2H2O, 0.022 g/L ZnSO4.7H2O, 0.01 g/L CoCl2.6H2O, 0.18 g/L MnCl2.4H2O, 13 μg/L H2SeO3, 2.7 mg/L NiSO4.6H2O, 1.84 mg/L Na3VO4 and 1.94 mg/L K2CrO4), 1.25 mg/L vitamins (1 mg/L vitamin B12, 1 mg/L biotin, 0.20 g/L thiamine HCl) and 20 g agar per liter], was inoculated into 50 mL liquid ONC-T18-GM0 medium, and incubated in a shaker incubator at 25° C. at 250 rpm for 36 hours. Half a milliliter of culture was transferred into a 1.5 mL tube and vortexed at full speed for 30 seconds, and then diluted in 50 mL sterilized water. One hundred microliters of the diluted inocula were respectively spread on the agar plates containing zeocin at various concentrations (0, 10, 30, 50, and 100 μg/mL). Plates were incubated at 25° C. incubator. The emergence and development of the colonies were observed daily. […] Under these conditions, zeocin was effective within the range of at least 10-200 μg/mL; higher concentrations may well also be effective. For example, concentrations in the range of 200-500 μg/mL or higher could work. […] Under the particular conditions utilized in the present Example, zeocin worked best at 50 μg/mL.

Cc1c(N)nc([C@H](CC(N)=O)NC[C@H](N)C(N)=O)nc1C(=O)N[C@H](C(=O)N[C@H](C)[C@@H](O)[C@H](C)C(=O)N[C@H](C(=O)NCCC1=N[C@@H](c2nc(C(=O)NCCCCN=C(N)N)cs2)CS1)[C@@H](C)O)[C@@H](O[C@@H]1O[C@@H](CO)[C@@H](O)[C@H](O)[C@@H]1O[C@H]1O[C@H](CO)[C@@H](O)[C@H](OC(N)=O)[C@@H]1O)c1cnc[nH]1 [Zeocin, phleomycin D1]
stability of zeocin ([1]; high salt concentrations): unstable at high salt concentrations | solubility of zeocin ([1]; water): water soluble | growth of transformed strains [2]: only the transformed strains grew well | sensitivity of ONC-T18 cells to zeocin [3]: highly sensitive | effect on growth of ONC-T18 (summary in words) ([3]; ONC-T18-GM0 agar plates): significantly inhibited the growth | zeocin concentration at which the parental strain grew [4]: ≤ 30 µg/mL | zeocin concentration that completely inhibited growth of ONC-T18 ([5]; ONC-T18-GM0 agar plates containing 18 g/L sea salt): 30 µg/mL | zeocin concentration needed for complete inhibition of ONC-T18 ([5]; ONC-T18-GM0 agar plates containing 35 g/L sea salt): 100 µg/mL | colony numbers ([5]; salt 5 g/L, zeocin 10 μg/mL): 0 | colony growth rates (diameter in mm) ([5]; salt 5 g/L, zeocin 10 μg/mL): 0 mm | colony numbers ([5]; salt 5 g/L, zeocin 30 μg/mL): 0 | colony growth rates (diameter in mm) ([5]; salt 5 g/L, zeocin 30 μg/mL): 0 mm | colony numbers ([5]; salt 5 g/L, zeocin 50 μg/mL): 0 | colony growth rates (diameter in mm) ([5]; salt 5 g/L, zeocin 50 μg/mL): 0 mm | colony numbers ([5]; salt 5 g/L, zeocin 100 μg/mL): 0 | colony growth rates (diameter in mm) ([5]; salt 5 g/L, zeocin 100 μg/mL): 0 mm | colony numbers ([5]; salt 8.5 g/L, zeocin 10 μg/mL): 0 | colony growth rates (diameter in mm) ([5]; salt 8.5 g/L, zeocin 10 μg/mL): 0 mm | colony numbers ([5]; salt 8.5 g/L, zeocin 30 μg/mL): 0 | colony growth rates (diameter in mm) ([5]; salt 8.5 g/L, zeocin 30 μg/mL): 0 mm | colony numbers ([5]; salt 8.5 g/L, zeocin 50 μg/mL): 0 | colony growth rates (diameter in mm) ([5]; salt 8.5 g/L, zeocin 50 μg/mL): 0 mm | colony numbers ([5]; salt 8.5 g/L, zeocin 100 μg/mL): 0 | colony growth rates (diameter in mm) ([5]; salt 8.5 g/L, zeocin 100 μg/mL): 0 mm | colony numbers ([5]; salt 18 g/L, zeocin 10 μg/mL): 11 | colony growth rates (diameter in mm) ([5]; salt 18 g/L, zeocin 10 μg/mL): 4.1 mm | colony numbers ([5]; salt 18 g/L, zeocin 30 μg/mL): 0 | colony growth rates (diameter in mm) ([5]; salt 18 g/L, zeocin 30 μg/mL): 0 mm | colony numbers ([5]; salt 18 g/L, zeocin 50 μg/mL): 0 | colony growth rates (diameter in mm) ([5]; salt 18 g/L, zeocin 50 μg/mL): 0 mm | colony numbers ([5]; salt 18 g/L, zeocin 100 μg/mL): 0 | colony growth rates (diameter in mm) ([5]; salt 18 g/L, zeocin 100 μg/mL): 0 mm | colony numbers ([5]; salt 35 g/L, zeocin 10 μg/mL): 22.5 | colony growth rates (diameter in mm) ([5]; salt 35 g/L, zeocin 10 μg/mL): 4.1 mm | colony numbers ([5]; salt 35 g/L, zeocin 30 μg/mL): 11 | colony growth rates (diameter in mm) ([5]; salt 35 g/L, zeocin 30 μg/mL): 1.9 mm | colony numbers ([5]; salt 35 g/L, zeocin 50 μg/mL): 5 | colony growth rates (diameter in mm) ([5]; salt 35 g/L, zeocin 50 μg/mL): 0.6 mm | colony numbers ([5]; salt 35 g/L, zeocin 100 μg/mL): 0 | colony growth rates (diameter in mm) ([5]; salt 35 g/L, zeocin 100 μg/mL): 0 mm | growth of transformed strains ([6]; compared with 1000 μg/mL or less): most strains grew remarkably slower | zeocin resistance of some transformant strains ([6]; e.g., FIG. 13 legend): highly resistant | growth of wild type strains [7]: none of the wild type strains were able to grow | colonies seen per plate ([8]; 50 μg/mL zeocin): Only a few of colonies were seen | colony sectors with visible colony-morphology changes ([8]; 50 μg/mL zeocin): observed in some of the colonies | colony numbers per plate ([8]; 10, 30, and 50 μg/mL zeocin): gradually reduced | sizes of the colonies ([8]; 30 to 50 μg/mL zeocin, six days post inoculation): gradually decreased | concentration at which zeocin worked best as mutagen ([8]; conditions of Example 13): 50 µg/mL | concentration range in which zeocin was effective as mutagen ([8]; conditions of Example 13): 10 to 200 µg/mL
